Holding throughout (format): cell-based
For assay [1], the system named is Fonsecaea pedrosoi (CFP 00791). Kind of assay: NIH Clinical Collection screening for antifungal activity (growth inhibition, OD 530 nm). Conditions: 10 µM, CFP00791 Fonsecaea pedrosoi isolate, 72–96 h; for inhibition at 10 µM: read-out: % Growth Inhibition. The procedure: These substances are part of the NIH Roadmap Molecular Libraries Screening Centers Network screening library, a collection of chemically diverse substances in Phase I-III clinical trials. Each substance was initially diluted to 1 mM in DMSO and stored at −20 °C until use. […] The final DMSO concentration corresponded to 0.5% v/v. The inoculum was prepared according to the protocol for filamentous fungi proposed by the European Committee on Antimicrobial Susceptibility Testing—EUCAST, with minor modifications. […] After growth, conidia were suspended in 3 mL of sterile distilled water with 0.1% Tween 20, vortexed, and the concentration adjusted to the 0.5 McFarland scale. The suspension was then diluted 1:10 in order to obtain a final working inoculum at 2–5 × 10^5 CFU/mL. Next, 100 µL of the inoculum was added to each well and the plates incubated at 35 °C for 72–96 h. Negative and positive controls consisted of culture medium alone and drug-free culture medium with the fungal inoculum previously described, respectively. Plates were read using a microplate reader (Epoch, Biotek, Wenusky, VT, USA) with a 530 nm filter to obtain the optical density. All plates were also visually read to confirm the equipment data. A calculation was performed to obtain the percentage of inhibition of fungal growth, according to the formula: (1 − (OD1/OD2)) × 100, where OD1 = optical density of the fungus in the presence of the drug; and OD2 = optical density of the growth control drug-free well.

In assay [2] the test system is different species that cause CBM. Kind of assay: MIC determination of hit drugs, stated over the panel of CBM agents. From the text: In this study, eight fungal isolates obtained from the Fiocruz Pathogenic Fungi Collection (CFP) and the American Type Culture Collection (ATCC®) were used. Fonsecaea pedrosoi (CFP 00791) was used throughout the study. This species is one of the main CBM agents worldwide. Cladophialophora carrionii (CFP 00910), Phialophora verrucosa (CFP 00937), Fonsecaea monophora (CFP 00911), Fonsecaea nubica (CFP 00912), Rhinocladiela similis (CFP 00790), Exophiala heteromorpha (ATCC® 28180), and Exophiala dermatitidis (ATCC® 28869) were used to determine the minimum inhibitory concentration (MIC) and in synergism assays. Strains were maintained on potato dextrose agar (PDA) (Sigma Chemical Corporation, St. Louis, MO, USA). Seven-day cultures incubated at 30 °C were used in the assays.
(§1) Minimum inhibitory concentrations (MICs) were determined using the method proposed by the European Committee on Antimicrobial Susceptibility Testing (EUCAST), with minor modifications. Hit drugs were serially diluted (80 μM to 0.15625 μM) in RPMI 1640 (twice concentrated, pH 7; supplemented with 2% glucose) buffered with MOPS in 96-well plates. The inoculums of all strains were prepared following the EUCAST protocol. Plates were incubated at 35 °C for 72–96 h. The MIC of the NCC substances was determined as the lowest concentration capable of inhibiting 100% of fungal growth when compared to the growth control well. MIC values were determined in duplicate.

Assay [3] concerns Cladophialophora carrionii (CFP 00910). Kind of assay: Minimum fungicidal concentration determination. Conditions: C. carrionii. The procedure: The MFC was determined as the lowest drug concentration without fungal growth on Sabouraud agar after five days of incubation at 35 °C.
For assay [4] the test system is unchanged. Kind of assay: MIC determination (EUCAST, minor modifications). Conditions: C. carrionii. As for the experimental part:
as §1

The subject of assay [5] is Exophiala heteromorpha (ATCC 28180). In words: MIC determination (EUCAST, minor modifications). Conditions: E. heteromorpha. As for the experimental part: as §1
The test system of assay [6] is Fonsecaea pedrosoi (CFP 00791). Kind of assay: MIC determination (EUCAST, minor modifications). Conditions: F. pedrosoi. The procedure:
as §1

Assay [7] relates to Exophiala dermatitidis (ATCC 28869). Kind of assay: MIC determination (EUCAST, minor modifications). Conditions: E. dermatitidis. As for the experimental part: as §1
The test system of assay [8] is Fonsecaea nubica (CFP 00912). In words: MIC determination (EUCAST, minor modifications). Conditions: F. nubica; for MIC: 100% growth inhibition, read-out: MIC. The procedure: as §1
The test system of assay [9] is Phialophora verrucosa (CFP 00937). In words: MIC determination (EUCAST, minor modifications). Conditions: P. verrucosa. The procedure: as §1
The test system of assay [10] is Rhinocladiela similis (CFP 00790). Kind of assay: MIC determination (EUCAST, minor modifications). Conditions: R. similis. The procedure: as §1
For assay [11], the system named is Fonsecaea monophora (CFP 00911). Kind of assay: MIC determination (EUCAST, minor modifications). Conditions: F. monophora. As for the experimental part:
as §1

Assay [12] concerns Exophiala heteromorpha (ATCC 28180). Kind of assay: Minimum fungicidal concentration determination. Conditions: E. heteromorpha. As for the experimental part:
(§2) Minimum fungicidal concentration (MFC) was determined in triplicate by transferring a 5 μL aliquot from each well without fungal growth of the microdilution plates used for MIC determination, as described above, onto 2% glucose Sabouraud agar (Sigma Chemical Corporation). The MFC was determined as the lowest drug concentration without fungal growth on Sabouraud agar after five days of incubation at 35 °C. When the MFC/MIC ratio of a hit drug was 1 or 2, the substance was considered fungicidal against the pathogen. If this ratio was greater than 2, the hit drug was considered to be fungistatic.

In assay [13] the test system is Fonsecaea pedrosoi (CFP 00791). In words: Minimum fungicidal concentration determination. Conditions: F. pedrosoi. As for the experimental part:
as §2

Assay [14] relates to Exophiala dermatitidis (ATCC 28869). Kind of assay: Minimum fungicidal concentration determination. Conditions: E. dermatitidis. As for the experimental part:
as §2

The test system of assay [15] is Fonsecaea nubica (CFP 00912). Kind of assay: Minimum fungicidal concentration determination. Conditions: F. nubica. As for the experimental part: as §2
Assay [16] relates to Phialophora verrucosa (CFP 00937). Kind of assay: Minimum fungicidal concentration determination. Conditions: P. verrucosa. As for the experimental part: as §2
In assay [17] the test system is Rhinocladiela similis (CFP 00790). Kind of assay: Minimum fungicidal concentration determination. Conditions: R. similis. The procedure: as §2
In assay [18] the test system is Fonsecaea monophora (CFP 00911). In words: Minimum fungicidal concentration determination. Conditions: F. monophora. The procedure:
as §2

Where [19] appears, read: different species that cause CBM, highest concentration tested 80 µM, read-out: MIC.

≈ marks a conversion by molar mass, not a printed value. Where two headings read alike, the source gives them in different places.

As usually defined, the inhibition is the drop in the measured response relative to a control, in per cent. The MIC is the smallest concentration in the dilution series that meets the test's criterion for growth inhibition. One may read the MFC as the lowest tested concentration that kills the fungus rather than only halting it.

Turning to `Nc1nc(=O)[nH]cc1F` [5-Fluorocytosine], the inhibition at 10 µM in assay [1] is 68%.
In the case of `COCCCOc1ccnc(C[S+]([O-])c2nc3ccccc3[nH]2)c1C` (centres unmarked) [Rabeprazole], in assay [2] (setting [19]), the minimal inhibitory concentration (MIC) was more than 80 µM. In addition, the inhibition at 10 µM in assay [1] was 61%.
With `CCC(C)n1ncn(-c2ccc(N3CCN(c4ccc(OCC5COC(Cn6cncn6)(c6ccc(Cl)cc6Cl)O5)cc4)CC3)cc2)c1=O` (centres unmarked) [itraconazole], in [1], the inhibition at 10 µM amounted to 100%.
Same read-out and setting: under `CCCCCCNC(=O)n1cc(F)c(=O)[nH]c1=O` [Carmofur] stands 100%; under `C=CC[C@@H]1/C=C(\C)C[C@H](C)C[C@H](OC)[C@H]2O[C@@](O)(C(=O)C(=O)N3CCCC[C@H]3C(=O)O[C@H](/C(C)=C/[C@@H]3CC[C@@H](O)[C@H](OC)C3)[C@H](C)[C@@H](O)CC1=O)[C@H](C)C[C@@H]2OC` [Tacrolimus], 89%.
Consider `OCCN1C[C@H](O)[C@@H](O)[C@H](O)[C@H]1CO` [Miglitol], for which the MIC in assay [2] (setting [19]) is more than 80 µM. In addition, the inhibition at 10 µM in assay [1] is 90%.
In the case of `Clc1ccc(COC(Cn2ccnc2)c2ccc(Cl)cc2Cl)c(Cl)c1` (centres unmarked) [Miconazole nitrate], in assay [1], the inhibition at 10 µM amounted to 99%.
On the same count and under the same terms, under `O=c1[nH]cc(F)c(=O)[nH]1` [5-Fluorouracil] stands 85%.
Regarding `C[C@H](N[C@@H](CCc1ccccc1)C(=O)O)C(=O)N1CCC[C@H]1C(=O)O` [Enalaprilat], in assay [2] (different species that cause CBM, highest concentration tested 80 µM), the MIC entry is “above 80 µM”. In assay [1], the “% Growth Inhibition” value amounted to 67%.
`CN(C)CC/C=C1/c2ccccc2COc2ccc(CC(=O)O)cc21` [Olopatadine (Patanol), Olopatadine]: the inhibition at 10 µM in [1] was found to be 85%.
Turning to Medroxyprogesterone, the “% Growth Inhibition” value in assay [1] came out at 91%.
Turning to `CC(=O)NC[C@H]1CN(c2ccc(N3CCOCC3)c(F)c2)C(=O)O1` [Linezolid], the minimum inhibitory concentration (MIC) in [2] (setting [19]) is more than 80 µM. Also, in assay [1], the inhibition at 10 µM was found to be 87%.
For the compound `CN1CCCCC1CCN1c2ccccc2Sc2ccc([S+](C)[O-])cc21` (centres unmarked) [Mesoridazine (Serentil), Mesoridazine], the inhibition at 10 µM in assay [1] worked out at 86%.
On to `CN1C(=O)CC[C@H]1c1cccnc1` [Cotinine (nicotine), Cotinine], for which the MIC in [2] (setting [19]) is more than 80 µM. Besides, in assay [1], the inhibition at 10 µM was 71%.
`CN[C@H]1CC[C@@H](c2ccc(Cl)c(Cl)c2)c2ccccc21` [Sertraline]: the MIC in assay [2] (setting [19]) is 10 to 40 µM.
On to `c1ccc2[nH]c(-c3cscn3)nc2c1` [Thiabendazole], for which the “MFC:MIC Ratio” value in assay [3] is given as 1; in assay [12], 8; in assay [13] it was 1; in assay [14], 8; in assay [15], 1; in assay [16] it was 4. In addition, the “MFC:MIC Ratio” value in assay [17] stood at 4; in [18], 1. Also, the “fungicidal or fungistatic (MFC/MIC ratio)” value is “fungicidal (When the MFC/MIC ratio of a hit drug was 1 or 2, the substance was considered fungicidal)” in assay [3]; “fungicidal (When the MFC/MIC ratio of a hit drug was 1 or 2, the substance was considered fungicidal)” in [13]; “fungicidal (When the MFC/MIC ratio of a hit drug was 1 or 2, the substance was considered fungicidal)” in assay [15]; “fungicidal (When the MFC/MIC ratio of a hit drug was 1 or 2, the substance was considered fungicidal)” in assay [18]. Also, the MFC in assay [3] (Cladophialophora carrionii, read-out: MFC) is 5 µM (≈ 1.01 µg/mL); in [12] (Exophiala heteromorpha, ATCC28180, read-out: MFC) it was 80 µM (≈ 16.1 µg/mL); in assay [13] (Fonsecaea pedrosoi, read-out: MFC), 5 µM (≈ 1.01 µg/mL); in assay [14] (Exophiala dermatitidis, ATCC28869, read-out: MFC), 80 µM (≈ 16.1 µg/mL); in assay [15] (Fonsecaea nubica, read-out: MFC), 5 µM (≈ 1.01 µg/mL); in [16] (Phialophora verrucosa, read-out: MFC) it was 20 µM (≈ 4.03 µg/mL). Moreover, the MFC in [17] (read-out: MFC) is 40 µM (≈ 8.05 µg/mL); in assay [18] (Fonsecaea monophora, read-out: MFC), 5 µM (≈ 1.01 µg/mL). The inhibition at 10 µM in [1] amounted to 82%. Moreover, the “Selectivity Index (SI)” value in assay [4] (CC50 Vero 24 h / MIC) came out at 99.50; in assay [5] (CC50 Vero 24 h / MIC), 49.75; in assay [6] (CC50 Vero 24 h / MIC) it was 99.50; in assay [7] (CC50 Vero 24 h / MIC), 49.75; in assay [8] (CC50 Vero 24 h / MIC), 99.50; in [9] (CC50 Vero 24 h / MIC), 99.50. The entries for the “Selectivity Index (SI)” value in assay [10] (CC50 Vero 24 h / MIC) and in assay [11] (CC50 Vero 24 h / MIC) were 49.75 and 99.50, respectively. Besides, the MIC in [4] (Cladophialophora carrionii, 100% growth inhibition, read-out: MIC) is 5 µM (≈ 1.01 µg/mL); in assay [5] (Exophiala heteromorpha, ATCC28180, 100% growth inhibition, read-out: MIC) it was 10 µM (≈ 2.01 µg/mL); in assay [6] (Fonsecaea pedrosoi, 100% growth inhibition, read-out: MIC) it was 5 µM (≈ 1.01 µg/mL); in assay [7] (Exophiala dermatitidis, ATCC28869, 100% growth inhibition, read-out: MIC), 10 µM (≈ 2.01 µg/mL); in assay [8] (Fonsecaea nubica), 5 µM (≈ 1.01 µg/mL); in assay [9] (Phialophora verrucosa, 100% growth inhibition, read-out: MIC) it was 5 µM (≈ 1.01 µg/mL). In addition, the MIC in assay [10] (100% growth inhibition, read-out: MIC) came out at 10 µM (≈ 2.01 µg/mL); in [11] (Fonsecaea monophora, 100% growth inhibition, read-out: MIC), 5 µM (≈ 1.01 µg/mL).
As to `O=C(NCC1CCCCN1)c1cc(OCC(F)(F)F)ccc1OCC(F)(F)F` (centres unmarked) [Flecainide Acetate], in assay [1], the inhibition at 10 µM came out at 95%.
Regarding `O=c1[nH]c(=O)n([C@H]2C[C@H](O)[C@@H](CO)O2)cc1F` [Floxuridine], the MIC in assay [2] (CBM agents except the Fonsecaea nubica isolate, read-out: MIC) was more than 80 µM; in assay [8], 0.3125 µM (≈ 0.0769 µg/mL). Further, in [1], the inhibition at 10 µM is 86%.
For the compound `Clc1ccc(COC(Cn2ccnc2)c2ccc(Cl)cc2Cl)cc1` (centres unmarked) [Econazole nitrate], in [1], the inhibition at 10 µM came to 94%.

Values taken from publication PMC10381309 (Journal of Fungi, 2023).
